Reference: patent US6800658B2, “Substituted diphenyl indanone, indane and indole compounds and analogues thereof useful for the treatment of prevention of diseases characterized by abnormal cell proliferation” (Children's Medical Center Corporation, priority 1997, dated 2004)

Assays:
[1] = tested on: SAD mouse red cells; conditions: oral administration; cited from earlier work
[2] = tested on: patients with sickle cell disease; conditions: oral therapy; cited from earlier work
[3] = tested on: MM-RU human melanoma cells; conditions: SCID mice inoculated with MM-RU human melanoma cells, daily administration; cited from earlier work
[4] = target: Gardos channel of erythrocytes (Homo sapiens, UniProt O15554); assay: Gardos Channel Assay; conditions: for inhibition at 10 µM: read-out: Gardos Channel Assay Inhibition
[5] = tested on: NIH 3T3 mouse fibroblast cells; assay: Mitogenic Assay (mitogen-induced cell proliferation); conditions: for IC50: NIH3T3, read-out: Mitogenic Assay IC50; for inhibition at 10 µM: NIH3T3, read-out: Mitogenic Assay Inhibition
[6] = tested on: HeLa; assay: SRB antiproliferative assay, HeLa; type: cell-based; conditions: Homo sapiens, 120 h, Cervical, 5% FCS, 5 Day Incubation
Excerpt: (§1) The cells were passaged using Trypsin (Gibco).

[7] = tested on: CaSki; assay: SRB antiproliferative assay, CaSki; type: cell-based; conditions: Homo sapiens, Ca-Ski, 120 h; Cervical; 5% FCS, 5 Day Incubation
Excerpt: as §1

[8] = tested on: MDA-MB-231; assay: SRB antiproliferative assay, MDA-MB-231; type: cell-based; conditions: Homo sapiens, 120 h; Breast; 5% FCS, 5 Day Incubation; read-out: SRB IC50 MDA-MB-23
Excerpt: as §1

[9] = tested on: HTB174; assay: SRB antiproliferative assay, HTB174; type: cell-based; conditions: 120 h; Lung; 5% FCS, 5 Day Incubation
Excerpt: as §1

[10] = tested on: HEPG2; assay: SRB antiproliferative assay, HEPG2; type: cell-based; conditions: Homo sapiens, HepG2, 120 h; Hepatocel; 5% FCS, 5 Day Incubation
Excerpt: as §1

[11] = tested on: DU-145; assay: SRB antiproliferative assay, DU-145; type: cell-based; conditions: Homo sapiens, DU-145, 120 h; Prostate; 5% FCS, 5 Day Incubation
Excerpt: as §1

[12] = tested on: SK-MEL-28; assay: SRB antiproliferative assay, SK-MEL-28; type: cell-based; conditions: Homo sapiens, SK-MEL-28, 120 h; Melanoma; 5% FCS, 5 Day Incubation
Excerpt: as §1

[13] = tested on: HCT-15; assay: SRB antiproliferative assay, HCT-15; type: cell-based; conditions: Homo sapiens, HCT-15, 120 h; Colon; 5% FCS, 5 Day Incubation
Excerpt: as §1

[14] = tested on: ACHN; assay: SRB antiproliferative assay, ACHN; type: cell-based; conditions: Homo sapiens, 120 h, Renal, 5% FCS, 5 Day Incubation
Excerpt: as §1

[15] = tested on: SK-OV-3; assay: SRB antiproliferative assay, SK-OV-3; type: cell-based; conditions: Homo sapiens, SK-OV-3, 120 h; Ovary; 5% FCS, 5 Day Incubation
Excerpt: as §1

[16] = tested on: HUVEC; assay: SRB assay, normal HUVEC cells; type: cell-based; conditions: 120 h, Normal human, 5% FCS, 5 Day Incubation
Excerpt: as §1

[17] = tested on: GM; assay: SRB assay, normal GM cells; type: cell-based; conditions: 120 h; Normal human; 5% FCS, 5 Day Incubation
Excerpt: as §1

[18] = tested on: 3T3; assay: SRB assay, normal 3T3 cells; type: cell-based; conditions: NIH3T3, 120 h; Normal mouse; 5% FCS, 5 Day Incubation
Excerpt: as §1

[19] = tested on: L929; assay: SRB assay, normal L929 cells; type: cell-based; conditions: L929, 120 h; Normal mouse; 5% FCS, 5 Day Incubation
Excerpt: as §1

[20] = tested on: MCF7; assay: SRB antiproliferative assay, MCF7; conditions: Homo sapiens, MCF7, 120 h, read-out: SRB IC50 MCF7
Experimental: (§2) The antiproliferative assays described herein were performed using standard aseptic procedures and universal precautions for the use of tissues. Cells were propagated using RPMI 1640 media (Gibco) containing 2% N 5% fetal calf serum (Biowhittaker) at 37° C., 5% CO2 and 95% humidity. The cells were passaged using Trypsin (Gibco).
(§3) Following incubation, the cellular protein was determined with the ulforhodamine B (SRB) assay (Skehan P et al., 1990, J. Natl. Cancer Inst. 82:1107-1112).

[21] = tested on: A549; assay: SRB antiproliferative assay, A549; conditions: Homo sapiens, A549, 120 h, read-out: SRB IC50 A549
Experimental: as §2, §3

[22] = tested on: MMRU cells; assay: SRB antiproliferative assay, MMRU; conditions: Homo sapiens, 120 h, read-out: SRB IC50 MMRU
Experimental: as §2, §3

[23] = tested on: HT29; assay: SRB antiproliferative assay, HT29; conditions: Homo sapiens, HT-29, 120 h, read-out: SRB IC50 HT29
Experimental: as §2, §3

Gardos channel of erythrocytes, sequence (O15554 whole entry): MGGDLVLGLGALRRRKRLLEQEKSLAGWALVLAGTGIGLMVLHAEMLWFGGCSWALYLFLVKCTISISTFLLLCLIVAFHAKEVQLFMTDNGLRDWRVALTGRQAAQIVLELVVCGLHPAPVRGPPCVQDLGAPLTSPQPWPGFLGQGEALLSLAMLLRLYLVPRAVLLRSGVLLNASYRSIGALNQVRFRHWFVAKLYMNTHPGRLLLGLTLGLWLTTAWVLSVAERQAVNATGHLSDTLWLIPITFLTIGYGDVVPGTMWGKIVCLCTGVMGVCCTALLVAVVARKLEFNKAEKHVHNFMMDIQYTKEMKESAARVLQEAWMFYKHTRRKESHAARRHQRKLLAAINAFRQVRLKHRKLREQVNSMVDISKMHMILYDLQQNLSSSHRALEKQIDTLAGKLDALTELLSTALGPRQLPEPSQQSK

In the case of `Clc1ccccc1C(c1ccccc1)(c1ccccc1)n1ccnc1` [Clotrimazole], the cell density [1] is listed as “decreased”, the “mean cell hemoglobin concentration (MCHC)” value [1] is listed as “decreased” and the “red cell Gardos channel” value [1] is listed as “inhibition”. For the same compound, the “red cell K+ content” value [1] was “increased”, the Gardos channel [2] was “induces inhibition” and the erythrocyte dehydration [2] was “reduces”. The “number of lung metastases observed” value [3] was “significant reduction”.
Compound `C=CCOC1=C(CC=C)C(c2ccccc2)(c2ccccc2)c2ccccc21` [Compound 6] has an inhibition at 10 µM [4] of 35%, an IC50 [5] of 3.4 µM and an inhibition at 10 µM [5] of 90%.
Compound `OC1=C(CCC2OCCO2)C(c2ccccc2)(c2ccccc2)c2ccccc21` [Compound 20, 2-(Ethyl-2′-(1,3-dioxolane))-1-hydroxy-3,3-diphenylindene] has a melting point of 124 to 126 °C, an inhibition at 10 µM [4] of 0% and an inhibition at 10 µM [5] of 81%.
With `COC(=O)c1ccc(COC2CC(c3ccccc3)(c3ccccc3)c3ccccc32)cc1` (stereo not drawn) [Compound 17, 3,3-Diphenyl-1-indanyl α-(4-methyltoluate) ether] the melting point was 50 to 52 °C, the inhibition at 10 µM [4] was 0% and the inhibition at 10 µM [5] was 76%.
`N#CC1OC12CC(c1ccccc1)(c1ccccc1)c1ccccc12` (stereo not drawn) [Compound 5, spiro[3,3-diphenyl-2,3-dihydro(1H)indene-1,3′-2′-cyanooxirane]] showed an inhibition at 10 µM [4] of 67.3% and an inhibition at 10 µM [5] of 29%.
With `O/N=C1\CC(c2ccc(Cl)cc2)(c2ccc(Cl)cc2)c2ccc(Cl)cc21` [Compound 11] the IC50 [6] was 5.1 µM, the IC50 [7] was 7 µM and the IC50 [8] was > 10 µM. For the same compound, the IC50 [9] was 5.9 µM, the IC50 [10] was 5.8 µM and the IC50 [11] was > 10 µM. The IC50 [12] was 5.5 µM, the IC50 [13] was 6.6 µM and the IC50 [14] was > 10 µM. For the same compound, the IC50 [15] was > 10 µM, the IC50 [16] was 6.4 µM and the IC50 [17] was > 10 µM. The IC50 [18] was > 10 µM, the IC50 [19] was 8.6 µM and the melting point was 85 °C. The inhibition at 10 µM [4] was 50%, the IC50 [20] was 4.4 µM and the IC50 [21] was 8.8 µM. The IC50 [22] was 6.2 µM, the IC50 [23] was 6.8 µM and the IC50 [5] was 3.4 µM. The inhibition at 10 µM [5] was 99%.
For `Clc1ccccc1COC1CC(c2ccccc2)(c2ccccc2)c2ccccc21` (stereo not drawn) [Compound 18, 3,3-Diphenyl-1-indanyl α-(2-chlorotoluyl) ether], the melting point was 27 to 29 °C, the inhibition at 10 µM [4] was 0% and the inhibition at 10 µM [5] was 73%.
Compound `COC(=O)C1C(=O)c2ccccc2C1(c1ccccc1)c1ccccc1` (stereo not drawn) [Compound 15, 3,3-Diphenylindanone-2-methyl acetate] has a melting point of 140 to 142 °C, an IC50 [4] of 2.9 µM and an inhibition at 10 µM [4] of 54.8%. The IC50 [5] was 7.5 µM and the inhibition at 10 µM [5] was 80%.
